Source: ChEMBL document CHEMBL1201862, “PubChem BioAssay data set” (2004)
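Following 48 hours of exposure in 96-well plates, responses at five concentrations were used to interpolate endpoints linearly. At the GI50, growth is halved.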 Active and inactive are the calls of the source. Cut-off read from the data, not from the text of the source: active = GI50 up to about 1.1 µM and inactive = higher.

Legend:
Test in all cases: inhibition of tumour cell growth, NCI panel, 48 h
[1] = test system: COLO 205
[2] = test system: SF-268
[3] = test system: HOP-92
[4] = test system: PC-3
[5] = test system: U-251
[6] = test system: T47D
[7] = test system: HOP-62
[8] = test system: NCI-H460
[9] = test system: SK-MEL-2
[10] = test system: HT-29
[11] = test system: OVCAR-8
[12] = test system: SW-620
[13] = test system: IGROV-1
[14] = test system: DU-145
[15] = test system: NCI/ADR-RES
[16] = test system: RXF 393
[17] = test system: M14
[18] = test system: MDA-MB-231
[19] = test system: SNB-19
[20] = test system: Hs-578T
[21] = test system: KM12
[22] = test system: MDA-MB-435
[23] = test system: SR
[24] = test system: NCI-H522
[25] = test system: A498
[26] = test system: EKVX
[27] = test system: HCT-15
[28] = test system: ACHN
[29] = test system: LOX IMVI
[30] = test system: A549
[31] = test system: HL-60
[32] = test system: OVCAR-5
[33] = test system: UO-31
[34] = test system: NCI-H226
[35] = test system: OVCAR-3
[36] = test system: MCF7
[37] = test system: NCI-H23
[38] = test system: TK-10
[39] = test system: OVCAR-4
[40] = test system: CAKI-1
[41] = test system: SK-MEL-5
[42] = test system: SF-295
[43] = test system: UACC-257
[44] = test system: CCRF-CEM
[45] = test system: UACC-62
[46] = test system: SF-539
[47] = test system: BT-549
[48] = test system: SK-MEL-28
[49] = test system: K562
[50] = test system: HCC 2998
[51] = test system: MDA-N
[52] = test system: 786-0
[53] = test system: SNB-75
[54] = test system: HCT-116
[55] = test system: MOLT-4
[56] = test system: SN12C
[57] = test system: SK-OV-3
[58] = test system: RPMI-8226

## OCC1OC(n2cnc3cccnc32)CC1O (stereo unspecified)
[1]
  GI50: > 100 µM (inactive)
[2]
  GI50: > 100 µM (inactive)
[3]
  GI50: > 100 µM (inactive)
[4]
  GI50: > 100 µM (inactive)
[5]
  GI50: > 100 µM (inactive)
[6]
  GI50: > 100 µM (inactive)
[7]
  GI50: > 100 µM (inactive)
[8]
  GI50: > 100 µM (inactive)
[9]
  GI50: > 100 µM (inactive)
[10]
  GI50: > 100 µM (inactive)
[11]
  GI50: > 100 µM (inactive)
[12]
  GI50: > 100 µM (inactive)
[13]
  GI50: > 100 µM (inactive)
[14]
  GI50: > 100 µM (inactive)
[15]
  GI50: > 100 µM (inactive)
[16]
  GI50: > 100 µM (inactive)
[17]
  GI50: > 100 µM (inactive)
[18]
  GI50: > 100 µM (inactive)
[19]
  GI50: > 100 µM (inactive)
[20]
  GI50: > 100 µM (inactive)
[21]
  GI50: > 100 µM (inactive)
[22]
  GI50: > 100 µM (inactive)
[23]
  GI50: > 100 µM (inactive)
[24]
  GI50: > 100 µM (inactive)
[25]
  GI50: > 100 µM (inactive)
[26]
  GI50: > 100 µM (inactive)
[27]
  GI50: > 100 µM
[28]
  GI50: > 100 µM (inactive)
[29]
  GI50: > 100 µM (inactive)
[30]
  GI50: > 100 µM (inactive)
[31]
  GI50: > 100 µM (inactive)
[32]
  GI50: > 100 µM (inactive)
[33]
  GI50: > 100 µM (inactive)
[34]
  GI50: > 100 µM (inactive)
[35]
  GI50: > 100 µM (inactive)
[36]
  GI50: > 100 µM (inactive)
[37]
  GI50: > 100 µM (inactive)
[38]
  GI50: > 100 µM (inactive)
[39]
  GI50: > 100 µM (inactive)
[40]
  GI50: > 100 µM (inactive)
[41]
  GI50: > 100 µM (inactive)
[42]
  GI50: > 100 µM (inactive)
[43]
  GI50: > 100 µM (inactive)
[44]
  GI50: > 100 µM (inactive)
[45]
  GI50: > 100 µM (inactive)
[46]
  GI50: > 100 µM (inactive)
[47]
  GI50: > 100 µM (inactive)
[48]
  GI50: > 100 µM (inactive)
[49]
  GI50: > 100 µM (inactive)
[50]
  GI50: > 100 µM (inactive)
[51]
  GI50: > 100 µM (inactive)
[52]
  GI50: > 100 µM (inactive)
[53]
  GI50: 7.76 µM (inactive)
[54]
  GI50: > 100 µM (inactive)
[55]
  GI50: > 100 µM (inactive)
[56]
  GI50: > 100 µM (inactive)

## O=C1/C(=C/c2ccc(Cl)cc2)N=C(c2ccccc2)N1c1nc2c(Cl)cc(Cl)cc2s1
[1]
  GI50: 37.9 µM (inactive)
[57]
  GI50: 28.1 µM (inactive)
[2]
  GI50: 43.9 µM (inactive)
[3]
  GI50: 26.2 µM (inactive)
[4]
  GI50: 18.5 µM (inactive)
[5]
  GI50: 19.7 µM (inactive)
[6]
  GI50: 25.1 µM (inactive)
[7]
  GI50: 22 µM (inactive)
[8]
  GI50: 28.6 µM (inactive)
[9]
  GI50: 20.8 µM (inactive)
[10]
  GI50: 23.9 µM (inactive)
[11]
  GI50: 31.9 µM (inactive)
[12]
  GI50: 30.7 µM (inactive)
[13]
  GI50: 32.4 µM (inactive)
[14]
  GI50: 33.7 µM (inactive)
[15]
  GI50: 27.2 µM (inactive)
[16]
  GI50: 29.9 µM (inactive)
[17]
  GI50: 34.9 µM (inactive)
[18]
  GI50: 30.5 µM (inactive)
[19]
  GI50: 34.8 µM (inactive)
[20]
  GI50: 31.5 µM (inactive)
[21]
  GI50: 24.3 µM (inactive)
[22]
  GI50: 24.7 µM (inactive)
[23]
  GI50: 14.3 µM (inactive)
[25]
  GI50: 18.2 µM (inactive)
[26]
  GI50: 14.3 µM (inactive)
[27]
  GI50: 32.4 µM
[28]
  GI50: 31.7 µM (inactive)
[29]
  GI50: 22.4 µM (inactive)
[30]
  GI50: 24.5 µM (inactive)
[31]
  GI50: 17.3 µM (inactive)
[32]
  GI50: 35.2 µM (inactive)
[33]
  GI50: 25.8 µM (inactive)
[58]
  GI50: 12.5 µM (inactive)
[35]
  GI50: 19.8 µM (inactive)
[36]
  GI50: 23.9 µM (inactive)
[38]
  GI50: 42.1 µM (inactive)
[39]
  GI50: 30.9 µM (inactive)
[40]
  GI50: 36.5 µM (inactive)
[41]
  GI50: 18.9 µM (inactive)
[42]
  GI50: 30.6 µM (inactive)
[43]
  GI50: 41.7 µM (inactive)
[44]
  GI50: 3.45 µM (inactive)
[45]
  GI50: 28.4 µM (inactive)
[46]
  GI50: 22.3 µM (inactive)
[47]
  GI50: 28.5 µM (inactive)
[48]
  GI50: 44.5 µM (inactive)
[49]
  GI50: 25.1 µM (inactive)
[50]
  GI50: 40.2 µM (inactive)
[51]
  GI50: 17.5 µM (inactive)
[52]
  GI50: 31.8 µM (inactive)
[53]
  GI50: 35.7 µM (inactive)
[54]
  GI50: 20 µM (inactive)
[55]
  GI50: 2.28 µM (inactive)
[56]
  GI50: 23.1 µM (inactive)
